For one assay, the target named is human thrombin (Homo sapiens, UniProt P00734). The assay can be described thus: inhibition of the amidolytic activity of thrombin (chromogenic substrate S-2238). The assay is classed as biochemical. As to conditions: for Ki: human thrombin 0.5 nM, substrate S-2238, pH 7.8, room temperature; for q (ratio of the inhibition of trypsin to the inhibition of thrombin): specificity: Ki trypsin / Ki thrombin. The protocol:
A differential inhibition of thrombin and other serine proteases by the above compounds is desirable in order to obtain compounds having as high a specificity as possible and at the same time to avoid possible side-effects.
Specific chromogenic peptide substrates can be used to determine the inhibition of the catalytic activity of the above proteases. The inhibition of the amidolytic activity of thrombin and trypsin by the above guanidines was determined as described hereinafter.
The measurements were carried out on microtitre plates at room temperature. For this, in each well of the plate 150 μl of buffer (50 mM Tris, 100 mM NaCl, 0.1% polyethylene glycol; pH 7.8) were mixed with 50 μl of the inhibitor dissolved in DMSO and diluted in the buffer, and 25 μl of human thrombin (0.5 nM final conc.) were added. After incubation for 10 minutes the reaction was started by the addition of chromogenic substrate S-2238 (H-D-Phe-Pip-Arg-paranitroaniline from Kabivitrum; 10 or 50 μm final conc.) and the hydrolysis of the substrate was followed spectrophotometrically on a kinetic microtiter plate reader for 5 minutes. After graphical presentation of the inhibition curves the Ki values were determined according to the method described in Blochem. J. 55, 1955, 170-171.

For a further assay, the target named is trypsin. Description: inhibition of the amidolytic activity of trypsin (chromogenic substrate S-2251). The assay is classed as biochemical. Conditions: substrate S-2251, 200 and 750 μM, otherwise analogous to thrombin.

As a reminder, the Ki is a dissociation constant, usually derived from enzyme kinetics or from competition with a known ligand. High values mean weaker binding, low ones tighter binding. In the case of `CC(=O)N[C@@H](Cc1c[nH]c2ccccc12)C(=O)N[C@@H](CC(=O)NC[C@@H]1CCCN(C(=N)N)C1)C(=O)N(CCNC(=O)c1cnccn1)C1CC1` [Example 21c, (S)-2-[(S)-2-acetylamino-3-indol-3-yl-propionylamino]-N4-[(S)-1-(amino-imino-methyl)-piperidin-3-ylmethyl]-N1-cyclopropyl-N1-(2-pyrazin-2-ylcarbonylamino-ethyl)-succinamide], the inhibition constant (Ki) on human thrombin stood at 0.0061 µM; on trypsin, 15 µM. The “q (ratio of the inhibition of trypsin to the inhibition of thrombin)” value at human thrombin was determined as 2459.

For the compound `NC(=NO)N1CCC[C@@H](CNC(=O)C[C@H](NS(=O)(=O)c2ccc3ccccc3c2)C(=O)N(CCNC(=O)c2cnccn2)C2CC2)C1` [Example 22, (S)-N4-[(S)-1-(amino-hydroxyimino-methyl)-piperidin-3-ylmethyl]-N1-cyclopropyl-2-(naphthalen-2-ylsulphonylamino)-N1-[2-(pyrazin-2-ylcarbonylamino)-ethyl]-succinamide], the Ki on human thrombin amounted to 0.0015 µM; at trypsin, 16.5 µM. For the same compound, the “q (ratio of the inhibition of trypsin to the inhibition of thrombin)” value on human thrombin was 11000.

Regarding `N=C(N)N1CCC[C@@H](CNC(=O)C[C@H](NS(=O)(=O)N2CCOCC2)C(=O)N(CCNC(=O)OCc2ccccc2)C2CC2)C1` [Example 23, benzyl 2-[[(S)-3-[(S)-1-(amino-imino-methyl)-piperidin-3-ylmethylcarbamoyl]-2-morpholin-4-ylsulphonylamino-propionyl]cyclopropyl-amino]-ethylcarbamate], on human thrombin, the affinity, expressed as Ki, was 0.0046 µM and the “q (ratio of the inhibition of trypsin to the inhibition of thrombin)” value is reported as 2826. This compound also came in with a Ki at trypsin of 13 µM.

In the case of `N=C(N)N1CCC[C@@H](CNC(=O)C[C@H](NS(=O)(=O)N2CCOCC2)C(=O)N(CCNC(=O)c2cnccn2)C2CC2)C1` [Example 24, (S)-N4-[(S)-1-(amino-imino-methyl)-piperidin-3-ylmethyl]-N1-cyclopropyl-2-morpholin-4-ylsulphonylamino-N1-(2-pyrazin-2-ylcarbonylamino-ethyl)-succinamide], the Ki on human thrombin stood at 0.0012 µM; on trypsin, 7.1 µM. The “q (ratio of the inhibition of trypsin to the inhibition of thrombin)” value on human thrombin was 5917.

Consider `N=C(N)N1CCC[C@@H](CNC(=O)C[C@H](NS(=O)(=O)N2CCOCC2)C(=O)N(CCNC(=O)c2ccc(=O)[nH]n2)C2CC2)C1` [Example 25], for which, at human thrombin, the Ki came out at 0.0013 µM and the “q (ratio of the inhibition of trypsin to the inhibition of thrombin)” value is given as 5538. This compound showed a Ki at trypsin of 7.2 µM.
